Test results as given in ChEMBL document CHEMBL5113403, “Design, synthesis, and biological evaluation of novel pyrazolo [3,4-d]pyrimidine derivatives as potent PLK4 inhibitors for the treatment of TRIM37-amplified breast cancer” (Eur J Med Chem, 2022).

Key:
MCF7 [1] = assay: Induction of apoptosis in human MCF7 cells assessed as early apoptotic cells at 0.10 uM incubated for 48 hrs by Annexin-V-FITC/PI staining based flow cytometric analysis (reference value: 2.83 %); type: functional; conditions: dose 0.1 µM
MCF7 [2] = assay: Induction of cell cycle arrest in human MCF7 cells assessed as greater G1 phase cells at 2.5 uM measured after 48 hrs by flow cytometry analysis (reference value: 0.78 %); type: functional
MCF7 [3] = assay: Induction of cell cycle arrest in human MCF7 cells assessed as decrease in G1 phase cells at 0.10 uM measured after 48 hrs by flow cytometry analysis (reference value: 56.9 %); type: functional; parameters: scale not given: the % may be the effect or the level left; conditions: dose 0.1 µM
MCF7 [4] = assay: Induction of apoptosis in human MCF7 cells assessed as total apoptotic cells at 2.50 uM incubated for 48 hrs by Annexin-V-FITC/PI staining based flow cytometric analysis relative to control; type: functional; conditions: dose 2.5 µM
[5] = AUClast in Sprague-Dawley rat at 3 mg/kg, iv by LC-MS/MS analysis; type: ADME, organism-based; parameters: time 0 - last, dose 3 mg/kg, route iv; conditions: in vivo
[6] = Plasma stability in human assessed as compound remaining at 100 uM measured after 60 mins by LC-MS/MS analysis relative to control; type: ADME, cell-free; conditions: read-out: Stability
MCF7 [7] = assay: Induction of cell cycle arrest in human MCF7 cells assessed as greater G1 phase cells at 0.25 uM measured after 48 hrs by flow cytometry analysis (reference value: 0.78 %); type: functional
MCF7 [8] = assay: Induction of cell cycle arrest in human MCF7 cells assessed as G2 phase cells at 0.10 uM measured after 48 hrs by flow cytometry analysis (reference value: 31.8 %); type: functional; conditions: dose 0.1 µM
MCF7 [9] = assay: Induction of cell cycle arrest in human MCF7 cells assessed as S phase cells at 0.50 uM measured after 48 hrs by flow cytometry analysis (reference value: 9.31 %); type: functional; conditions: dose 0.5 µM
[10] = Plasma stability in human assessed as compound remaining at 100 uM measured after 10 mins by LC-MS/MS analysis relative to control; type: ADME, cell-free; conditions: read-out: Stability
MCF7 [11] = assay: Induction of apoptosis in human MCF7 cells assessed as late apoptotic cells at 0.25 uM incubated for 48 hrs by Annexin-V-FITC/PI staining based flow cytometric analysis (reference value: 0.019 %); type: functional
MCF7 [12] = assay: Induction of apoptosis in human MCF7 cells assessed as late apoptotic cells at 0.50 uM incubated for 48 hrs by Annexin-V-FITC/PI staining based flow cytometric analysis (reference value: 0.019 %); type: functional; conditions: dose 0.5 µM
MCF7 [13] = assay: Induction of apoptosis in human MCF7 cells assessed as total apoptotic cells at 0.50 uM incubated for 48 hrs by Annexin-V-FITC/PI staining based flow cytometric analysis relative to control; type: functional; conditions: dose 0.5 µM
CYP2D6 = CYP2D6 (Homo sapiens, UniProt P10635); assay: Inhibition of CYP2D6 in human liver microsomes at 10 uM preincubated for 10 mins followed by addition of NADPH-regenerating system and measured after 15 mins by LC-MS/MS analysis relative to control; type: ADME, Microsome; conditions: time 25 min
CYP2D6, sequence (P10635 whole entry): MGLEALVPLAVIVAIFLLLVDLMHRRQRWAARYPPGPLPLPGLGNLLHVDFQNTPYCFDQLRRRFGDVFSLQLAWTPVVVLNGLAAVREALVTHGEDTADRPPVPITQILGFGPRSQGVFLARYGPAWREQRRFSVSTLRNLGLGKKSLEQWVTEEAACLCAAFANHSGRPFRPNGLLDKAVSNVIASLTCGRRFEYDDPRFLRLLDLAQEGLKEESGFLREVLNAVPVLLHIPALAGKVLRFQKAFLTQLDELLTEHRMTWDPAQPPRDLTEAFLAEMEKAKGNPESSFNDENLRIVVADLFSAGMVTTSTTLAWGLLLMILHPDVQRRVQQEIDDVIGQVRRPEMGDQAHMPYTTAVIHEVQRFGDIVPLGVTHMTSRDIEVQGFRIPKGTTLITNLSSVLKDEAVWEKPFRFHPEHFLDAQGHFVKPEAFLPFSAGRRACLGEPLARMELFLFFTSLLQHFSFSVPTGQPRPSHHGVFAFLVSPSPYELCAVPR

[14] = Tmax in Sprague-Dawley rat at 10 mg/kg, po by LC-MS/MS analysis; type: ADME, organism-based; conditions: in vivo
MCF7 [15] = assay: Induction of cell cycle arrest in human MCF7 cells assessed as G2 phase cells at 2.5 uM measured after 48 hrs by flow cytometry analysis (reference value: 31.8 %); type: functional
MCF7 [16] = assay: Induction of cell cycle arrest in human MCF7 cells assessed as less G1 phase cells at 0.25 uM measured after 48 hrs by flow cytometry analysis (reference value: 0.44 %); type: functional
MCF7 [17] = assay: Induction of cell cycle arrest in human MCF7 cells assessed as decrease in G1 phase cells at 0.50 uM measured after 48 hrs by flow cytometry analysis (reference value: 56.9 %); type: functional; parameters: scale not given: the % may be the effect or the level left; conditions: dose 0.5 µM
MCF7 [18] = assay: Induction of apoptosis in human MCF7 cells assessed as necrotic cells at 2.5 uM incubated for 48 hrs by Annexin-V-FITC/PI staining based flow cytometric analysis (reference value: 0.18 %); type: functional
MCF7 [19] = assay: Induction of apoptosis in human MCF7 cells assessed as early apoptotic cells at 2.5 uM incubated for 48 hrs by Annexin-V-FITC/PI staining based flow cytometric analysis (reference value: 2.83 %); type: functional
MCF7 [20] = assay: Induction of cell cycle arrest in human MCF7 cells assessed as G2 phase cells at 1 uM measured after 48 hrs by flow cytometry analysis (reference value: 31.8 %); type: functional
BT-474 = assay: Antiproliferative activity against human BT-474 cells assessed as cell growth inhibition incubated for 5 days by MTT assay; type: functional, cell-based; conditions: BT-474, 120 h
MCF7 [21] = assay: Induction of cell cycle arrest in human MCF7 cells assessed as greater G1 phase cells at 0.50 uM measured after 48 hrs by flow cytometry analysis (reference value: 0.78 %); type: functional; conditions: dose 0.5 µM
CYP2C9 = CYP2C9 (Homo sapiens, UniProt P11712); assay: Inhibition of CYP2C9 in human liver microsomes at 10 uM preincubated for 10 mins followed by addition of NADPH-regenerating system and measured after 15 mins by LC-MS/MS analysis relative to control; type: ADME, Microsome; conditions: time 25 min
CYP2C9, sequence (P11712 whole entry): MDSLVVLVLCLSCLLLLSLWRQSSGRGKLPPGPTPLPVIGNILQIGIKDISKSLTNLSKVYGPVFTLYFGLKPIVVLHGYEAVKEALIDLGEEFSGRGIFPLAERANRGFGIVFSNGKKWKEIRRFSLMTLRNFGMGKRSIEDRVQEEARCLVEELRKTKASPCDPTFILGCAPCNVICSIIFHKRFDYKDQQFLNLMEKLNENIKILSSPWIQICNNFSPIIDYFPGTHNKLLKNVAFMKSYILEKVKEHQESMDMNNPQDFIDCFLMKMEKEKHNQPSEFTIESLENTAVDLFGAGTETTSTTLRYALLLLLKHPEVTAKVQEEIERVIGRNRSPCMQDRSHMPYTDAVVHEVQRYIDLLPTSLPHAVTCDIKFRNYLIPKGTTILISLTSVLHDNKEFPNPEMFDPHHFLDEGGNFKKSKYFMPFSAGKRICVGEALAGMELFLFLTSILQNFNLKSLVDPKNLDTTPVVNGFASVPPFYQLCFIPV

MCF7 [22] = assay: Induction of apoptosis in human MCF7 cells assessed as total apoptotic cells at 0.10 uM incubated for 48 hrs by Annexin-V-FITC/PI staining based flow cytometric analysis relative to control; type: functional; conditions: dose 0.1 µM
MCF7 [23] = assay: Induction of apoptosis in human MCF7 cells assessed as necrotic cells at 0.25 uM incubated for 48 hrs by Annexin-V-FITC/PI staining based flow cytometric analysis (reference value: 0.18 %); type: functional
MCF7 [24] = assay: Induction of apoptosis in human MCF7 cells assessed as viable cells at 2.5 uM incubated for 48 hrs by Annexin-V-FITC/PI staining based flow cytometric analysis (reference value: 97 %); type: functional
[25] = Plasma stability in human assessed as compound remaining at 100 uM measured after 120 mins by LC-MS/MS analysis relative to control; type: ADME, cell-free; conditions: read-out: Stability
MCF7 [26] = assay: Induction of cell cycle arrest in human MCF7 cells assessed as decrease in G1 phase cells at 2.5 uM measured after 48 hrs by flow cytometry analysis (reference value: 56.9 %); type: functional; parameters: scale not given: the % may be the effect or the level left
MCF7 [27] = assay: Induction of cell cycle arrest in human MCF7 cells assessed as greater G1 phase cells at 1 uM measured after 48 hrs by flow cytometry analysis (reference value: 0.78 %); type: functional
[28] = MRT in Sprague-Dawley rat at 3 mg/kg, iv by LC-MS/MS analysis; type: ADME, organism-based; conditions: in vivo
MCF7 [29] = assay: Induction of cell cycle arrest in human MCF7 cells assessed as less G1 phase cells at 0.50 uM measured after 48 hrs by flow cytometry analysis (reference value: 0.44 %); type: functional; conditions: dose 0.5 µM
MCF7 [30] = assay: Induction of apoptosis in human MCF7 cells assessed as viable cells at 0.10 uM incubated for 48 hrs by Annexin-V-FITC/PI staining based flow cytometric analysis (reference value: 97 %); type: functional; conditions: dose 0.1 µM
MCF7 [31] = assay: Antiproliferative activity against human MCF7 cells assessed as cell growth inhibition incubated for 5 days by MTT assay; type: functional, cell-based; conditions: MCF7, 120 h
[32] = Oral bioavailability in Sprague-Dawley rat at 10 mg/kg by LC-MS/MS analysis; type: ADME, organism-based; conditions: in vivo
MCF7 [33] = assay: Induction of cell cycle arrest in human MCF7 cells assessed as greater G1 phase cells at 0.10 uM measured after 48 hrs by flow cytometry analysis (reference value: 0.78 %); type: functional; conditions: dose 0.1 µM

## Cc1cc(Nc2nc(NCc3ccc(F)cc3F)nc3c2cnn3C2CCOCC2)n[nH]1
MCF7 [1]
  Activity: 19.3%
MCF7 [2]
  Activity: 0.87%
MCF7 [3]
  Activity: 53.4%
MCF7 [4]
  Activity: 79.3%
[5]
  AUC(0-t): 1070 ng·h/mL
[6]
  remaining at 1 h, 100 µM: 99.2%
MCF7 [7]
  Activity: 0.68%
MCF7 [8]
  Activity: 38%
MCF7 [9]
  Activity: 16.9%
[10]
  remaining at 10 min, 100 µM: 108%
MCF7 [11]
  Activity: 6.18%
MCF7 [12]
  Activity: 7.58%
MCF7 [13]
  Activity: 67.28%
CYP2D6
  inhibition at 0.25 h, 10 µM: 13.4%
[14]
  Tmax: 1.33 h
MCF7 [15]
  Activity: 67.6%
MCF7 [16]
  Activity: 8.49%
MCF7 [17]
  Activity: 36.2%
MCF7 [18]
  Activity: 0.98%
MCF7 [19]
  Activity: 68.5%
MCF7 [20]
  Activity: 58.3%
BT-474
  IC50: 2.35 µM
MCF7 [21]
  Activity: 1.34%
CYP2C9
  inhibition at 0.25 h, 10 µM: 25.4%
MCF7 [22]
  Activity: 24.04%
MCF7 [23]
  Activity: 1.97%
MCF7 [24]
  Activity: 19.7%
[25]
  remaining at 2 h, 100 µM: 107%
MCF7 [26]
  Activity: 9.8%
MCF7 [27]
  Activity: 0.61%
[28]
  MRT: 1.07 h
MCF7 [29]
  Activity: 0.71%
MCF7 [30]
  Activity: 74.9%
MCF7 [31]
  IC50: 0.36 µM
[32]
  bioavailability: 8.03%
MCF7 [33]
  Activity: 0.62%
